Assay results taken from ChEMBL document CHEMBL3091316, “Antiangiogenic tocotrienol derivatives from Garcinia amplexicaulis” (J Nat Prod, 2013).
Calls of active or inactive are those of the source. No cut-off for these calls is given here.

Assays:
HUVEC [1] = assay: Inhibition of VEGF-induced HUVEC proliferation at 25 nM to 2.5 uM incubated for 30 mins prior to VEGF challenge measured after 24 hrs by fluorescence assay; format: functional, cell-based; conditions: Homo sapiens
HUVEC [2] = assay: Cytotoxicity against HUVEC assessed as cell viability at 25 nM to 2.5 uM after 24 to 48 hrs by MTT assay; format: cell-based; conditions: human, 0.025 µM
HUVEC [3] = assay: Antimigratory activity in VEGF-induced HUVEC assessed as decrease in cell migration at 25 nM to 2.5 uM incubated for 30 mins prior to VEGF challenge measured after 24 hrs by Transwell assay; format: functional, cell-based; conditions: Homo sapiens
HUVEC [4] = assay: Antiangiogenic activity in HUVEC assessed as inhibition of VEGF-induced capillary network formation at 25 nM to 2.5 uM after 24 hrs by matrigel assay; format: functional, cell-based; conditions: Homo sapiens
HUVEC [5] = assay: Antiadhesive activity in HUVEC assessed as decrease in cell adhesion at 25 nM to 2.5 uM after 24 hrs by crystal violet staining technique; format: functional, cell-based; conditions: Homo sapiens
HUVEC [6] = assay: Antimigratory activity in VEGF-induced HUVEC assessed as decrease in cell migration at 2.5 uM incubated for 30 mins prior to VEGF challenge measured after 24 hrs by Transwell assay; format: functional, cell-based; conditions: Homo sapiens

SMILES | inhibition (HUVEC [1]) | Activity (HUVEC [2]) | Activity (HUVEC [3]) | Activity (HUVEC [4]) | Activity (HUVEC [5]) | Activity (HUVEC [6])
C/C(=C\CC/C(C)=C/CC[C@]1(C)CCc2cc(O)c(C)c(C)c2O1)CCC=C(CO)CO | Active | Non-toxic | inactive | Active | inactive | 
C/C(=C\CC/C(C)=C/CC[C@]1(C)CCc2cc(O)cc(C)c2O1)CCC=C(CO)CO | Active | Non-toxic |  | Active | Active | Active
